Where two headings read alike, the source gives them in different places.
Key:
[1] = molecular target: T1, ABL^wild (Homo sapiens, UniProt P00519); experiment: Hot Spot kinase assay, ABL wild type; type: biochemical; conditions: for IC50: ATP 10 μM, 25° C., 120 minutes
Description: (§1) Kinase analysis was conducted in a “Hot Spot” analysis platform manner. Specific kinase/substrate pairs and cofactors were prepared in a reaction buffer (20 mM HEPES (pH 7.5), 10 mM MgCl2, 1 mM EGTA, 0.02% Brij35, 0.02 mg/ml BSA, 0.1 mM Na3VO4, 2 mM DTT and 1% DMSO). 10 concentrations of compounds that were serially diluted 3 times in sequence from a concentration of 20 μM were added to the reaction mixture, and a mixture of ATP (10 μM, Sigma) and 33P ATP (Perkin Elmer) was added thereto after 20 minutes.

[2] = molecular target: T2, ABL^T315I (Homo sapiens, UniProt P00519, T315I); experiment: Hot Spot kinase assay, ABL T315I; type: biochemical; conditions: for IC50: ATP 10 μM, 25° C., 120 minutes
Description: as §1

[3] = molecular target: DDR1 (Homo sapiens, UniProt Q08345); experiment: Hot Spot kinase assay, DDR1; type: biochemical; conditions: for IC50: ATP 10 μM, 25° C., 120 minutes
Chain of DDR1 (Q08345 19-913): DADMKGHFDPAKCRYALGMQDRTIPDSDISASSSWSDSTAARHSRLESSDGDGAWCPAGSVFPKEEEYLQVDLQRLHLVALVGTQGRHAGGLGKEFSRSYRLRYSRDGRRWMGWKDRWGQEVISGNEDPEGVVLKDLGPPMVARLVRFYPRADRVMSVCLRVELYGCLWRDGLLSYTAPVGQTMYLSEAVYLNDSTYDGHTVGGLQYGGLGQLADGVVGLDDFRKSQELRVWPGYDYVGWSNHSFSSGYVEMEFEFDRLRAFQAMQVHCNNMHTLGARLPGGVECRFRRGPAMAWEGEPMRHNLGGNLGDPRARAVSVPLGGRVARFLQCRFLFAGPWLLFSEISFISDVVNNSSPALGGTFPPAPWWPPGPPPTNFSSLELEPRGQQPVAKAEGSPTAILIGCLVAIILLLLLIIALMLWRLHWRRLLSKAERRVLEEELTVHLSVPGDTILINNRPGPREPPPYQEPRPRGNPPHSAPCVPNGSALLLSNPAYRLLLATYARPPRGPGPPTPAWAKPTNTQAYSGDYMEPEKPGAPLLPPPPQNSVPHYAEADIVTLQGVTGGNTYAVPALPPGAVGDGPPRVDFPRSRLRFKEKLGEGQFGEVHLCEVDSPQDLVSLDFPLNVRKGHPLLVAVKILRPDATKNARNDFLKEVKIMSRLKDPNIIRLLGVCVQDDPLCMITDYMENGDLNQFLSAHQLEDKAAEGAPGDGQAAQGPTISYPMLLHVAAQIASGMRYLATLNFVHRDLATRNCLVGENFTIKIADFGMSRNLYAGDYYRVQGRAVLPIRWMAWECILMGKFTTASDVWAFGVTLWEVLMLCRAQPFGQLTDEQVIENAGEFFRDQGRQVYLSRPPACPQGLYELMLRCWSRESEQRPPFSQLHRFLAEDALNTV
Description: The kinase inhibitory effect of the compounds of Compound Nos. 1 to 16 was measured. Kinase analysis was conducted in a “Hot Spot” analysis platform manner. Specific kinase/substrate pairs and cofactors were prepared in a reaction buffer (20 mM HEPES (pH 7.5), 10 mM MgCl2, 1 mM EGTA, 0.02% Brij35, 0.02 mg/ml BSA, 0.1 mM Na3VO4, 2 mM DTT and 1% DMSO). 10 concentrations of compounds that were serially diluted 3 times in sequence from a concentration of 20 μM were added to the reaction mixture, and a mixture of ATP (10 μM, Sigma) and 33P ATP (Perkin Elmer) was added thereto after 20 minutes. The reaction was conducted at 25° C. for 120 minutes, the spots during the reaction were filtered using P81 ion exchange filter paper (Whatman #3698-915), and the unbound phosphate was removed by washing with 0.1% phosphoric acid using a filter.

[4] = test system: K-562 (human leukemia cancer) cells; experiment: MTT assay, anti-proliferative effect on K-562; type: cell-based; conditions: for GI50: Homo sapiens, MTT; for fold higher inhibitory effect than imatinib (K-562 GI50): versus imatinib positive control; for fold higher inhibitory effect than nilotinib (K-562 GI50): versus nilotinib
Description: The cell line used for an MTT assay was K-562 (human leukemia cancer), and was obtained from the Korea Cell Line Bank and then cultured. The medium herein used was RPMI 1640 medium containing 10% fetal bovine serum, and the culture was conducted in a constant-temperature constant-humidity incubator (37° C., 5% CO2). The cells were seeded at a density of 3×10^3 cells/well in a 96-well microplate and cultured in a CO2 incubator for 24 hours, the medium was removed, and further culture was performed for 72 hours in 100 μl of respective inhibitor solutions diluted to different concentrations. 15 μl of an MTT solution (Promega, CellTiter 96) was added thereto and cultured for 4 hours. Then, blue formazan, formed by adding 100 μl of a stop solution (Promega, CellTiter 96), was dissolved.
After the culture solution was allowed to stand for 18 hours or more, absorbance was measured at 570 nm to obtain IC50 (a concentration at which 50% of cancer cells are inhibited).

[5] = molecular target: T1, ABL^wild; conditions: positive controls, values in the references; cited from earlier work
[6] = molecular target: T2, ABL^T315I; conditions: positive controls, values in the references; cited from earlier work
[7] = test system: K-562 (human leukemia cancer) cells; conditions: positive controls, values in the references; read-out: GI50, μm K562; cited from earlier work
[8] = test system: CML patients; conditions: primary therapeutic agent for CML patients; cited from earlier work
[9] = test system: patients; conditions: patients administered with ponatinib; cited from earlier work
[10] = K562, 72 hours treatment, read-out: GI50, μm K562
[11] = K562, 72 hours, read-out: GI50 against K-562 cancer cells

SMILES | IC50 [1] [nM] | IC50 [2] [nM] | IC50 [3] [nM] | GI50 [4, 10] [nM] | other results
Cc1cn(-c2cc(NC(=O)c3cccc(C#Cc4cccc5[nH]nc(N)c45)c3)cc(C(F)(F)F)c2)cn1 [Compound No. 11, 3-((3-Amino-1H-indazol-4-yl)ethynyl)-N-(3-(4-methyl-1H-imidazol-1-yl)-5-(trifluoromethyl)phenyl)benzamide] | 15.4 | 1060 | 21 | 140 | –
Nc1n[nH]c2cccc(C#Cc3cccc(NC(=O)c4cccc(C(F)(F)F)c4)c3)c12 [Compound No. 1, N-(3-((3-Amino-1H-indazol-4-yl)ethynyl)phenyl)-3-(trifluoromethyl)benzamide] | 313 | 2550 | 53.3 | 1450 ± 1160 | –
Cc1ccc(C(=O)Nc2cccc(C#Cc3cccc4[nH]nc(N)c34)c2)cc1C(F)(F)F [Compound No. 6, N-(3-((3-Amino-1H-indazol-4-yl)ethynyl)phenyl)-4-methyl-3-(trifluoromethyl)benzamide] | 104 | 2960 | 22.6 | 1620 ± 1240 | –
Nc1n[nH]c2cccc(C#Cc3cccc(NC(=O)c4cc(F)cc(C(F)(F)F)c4)c3)c12 [Compound No. 4, N-(3-((3-Amino-1H-indazol-4-yl)ethynyl)phenyl)-3-fluoro-5-(trifluoromethyl)benzamide] | 172 | – | 82.8 | 2100 ± 1110 | –
Nc1n[nH]c2cccc(C#Cc3cccc(NC(=O)c4ccc(N5CCOCC5)c(C(F)(F)F)c4)c3)c12 [Compound No. 8] | 5.21 | 183 | 14.7 | – | inhibitory activity against ABL (in words) [1]: excellent inhibitory activity; inhibitory activity against the T315I point mutation of ABL (in words) [2]: exhibited inhibitory activity; inhibitory activity against DDR1 (in words) [3]: excellent inhibitory activity; proliferation inhibitory effect on K-562 cancer cells (in words) [4]: excellent anti-proliferative activity; GI50 [4, 11]: 20 nM; fold higher inhibitory effect than imatinib (K-562 GI50) [4]: 13 fold; fold higher inhibitory effect than nilotinib (K-562 GI50) [4]: 4 fold
Nc1n[nH]c2cccc(C#Cc3cccc(C(=O)Nc4ccc(CN5CCOCC5)c(C(F)(F)F)c4)c3)c12 [Compound No. 16] | 103 | 1360 | 16.3 | 520 ± 1250 | –
Nc1n[nH]c2cccc(C#Cc3cccc(NC(=O)c4cc(N5CCOCC5)cc(C(F)(F)F)c4)c3)c12 [Compound No. 5, N-(3-((3-Amino-1H-indazol-4-yl)ethynyl)phenyl)-3-morpholino-5-(trifluoromethyl)benzamide] | 637 | – | 20.1 | 2140 ± 1150 | –
Nc1n[nH]c2cccc(C#Cc3cccc(NC(=O)c4cc(C(F)(F)F)cc(C(F)(F)F)c4)c3)c12 [Compound No. 2, 4N-(3-((3-Amino-1H-indazol-4-yl)ethynyl)phenyl)-3,5-bis (trifluoromethyl)benzamide] | 667 | – | 96.5 | – | –
Nc1n[nH]c2cccc(-c3ccc(C(=O)N4CCN(C(=O)c5ccc(Cl)cc5Cl)CC4)cc3)c12 [(4-(4-(3-amino-1H-indazol-4-yl)benzoyl)piperazin-1-yl)(2,4-dichlorophenyl)methanone] | – | – | – | – | IC50 [5]: 14 nM; IC50 [6]: 450 nM; GI50 [7]: 6500 nM
CCN1CCN(Cc2ccc(NC(=O)c3cccc(C#Cc4cccc5[nH]nc(N)c45)c3)cc2C(F)(F)F)CC1 [Compound No. 15, 3-((3-Amino-1H-indazol-4-yl)ethynyl)-N-(4-((4-ethylpiperazin-1-yl)methyl)-3-(trifluoromethyl)phenyl)benzamide] | 0.625 | 5.82 | 3.7 | 30 | inhibitory activity against ABL (in words) [1]: excellent inhibitory activity; inhibitory activity against the T315I point mutation of ABL (in words) [2]: excellent inhibitory activity; inhibitory activity against DDR1 (in words) [3]: excellent inhibitory activity; proliferation inhibitory effect on K-562 cancer cells (in words) [4]: excellent anti-proliferative activity; GI50 [4, 11]: 30 nM; fold higher inhibitory effect than imatinib (K-562 GI50) [4]: 8.9 fold; fold higher inhibitory effect than nilotinib (K-562 GI50) [4]: 2.7 fold
Cc1cn(-c2cc(NC(=O)c3ccc(C)c(Nc4nccc(-c5cccnc5)n4)c3)cc(C(F)(F)F)c2)cn1 [Nilotinib] | – | – | – | – | GI50 [7]: 80 ± 90 nM
Cc1ccc(NC(=O)c2ccc(CN3CCN(C)CC3)cc2)cc1Nc1nccc(-c2cccnc2)n1 [Imatinib] | – | – | – | – | GI50 [7]: 267 ± 30 nM; share of patients in whom effective [8]: 67%
CN1CCN(c2ccc(C(=O)Nc3cccc(C#Cc4cccc5[nH]nc(N)c45)c3)cc2C(F)(F)F)CC1 [Compound No. 7, N-(3-((3-Amino-1H-indazol-4-yl)ethynyl)phenyl)-4-(4-methylpiperazin-1-yl)-3-(trifluoromethyl)benzamide] | – | – | 31.9 | – | –
Cc1ccc(C(=O)Nc2ccc(CN3CCN(C)CC3)c(C(F)(F)F)c2)cc1C#Cc1cnc2cccnn12 [Ponatinib] | – | – | – | – | share of patients with side effects such as thrombosis or narrowing of blood vessel walls [9]: 20%
CN1CCN(Cc2cc(NC(=O)c3cccc(C#Cc4cccc5[nH]nc(N)c45)c3)cc(C(F)(F)F)c2)CC1 [Compound No. 12] | 60.5 | 1150 | 29.1 | 290 | –
Nc1n[nH]c2cccc(C#Cc3cccc(C(=O)Nc4cc(C(F)(F)F)cc(C(F)(F)F)c4)c3)c12 [Compound No. 10, 3-((3-Amino-1H-indazol-4-yl)ethynyl)-N-(3,5-bis(trifluoromethyl)phenyl)benzamide] | 186 | – | 33 | 460 ± 1340 | –
Nc1n[nH]c2cccc(C#Cc3cccc(C(=O)Nc4ccc(Cl)c(C(F)(F)F)c4)c3)c12 [Compound No. 14, 3-((3-Amino-1H-indazol-4-yl)ethynyl)-N-(4-chloro-3-(trifluoromethyl)phenyl)benzamide] | 255 | – | 20 | 3330 ± 1180 | –
Cc1cn(-c2cc(C(=O)Nc3cccc(C#Cc4cccc5[nH]nc(N)c45)c3)cc(C(F)(F)F)c2)cn1 [Compound No. 3] | 17.1 | 1290 | 13.1 | 120 | –
Nc1n[nH]c2cccc(C#Cc3cccc(C(=O)Nc4cccc(C(F)(F)F)c4)c3)c12 [Compound No. 9] | 210 | – | 18.4 | 3750 ± 1220 | –

From patent US11407745B2, “Indazole derivatives and pharmaceutical composition for preventing, alleviating or treating cancer containing the same” (KOREA INSTITUTE OF SCIENCE AND TECHNOLOGY, priority 2019, dated 2022)
